According to publication PMC6946680, “Modulation of brain cation-Cl^− cotransport via the SPAK kinase inhibitor ZT-1a” (Nature Communications, 2020):
“And” between values parts separate entries of the source, which are not always exact repeats. Equal values may be shown once. Read-outs that look alike come from different tables or passages of the source.

Legend:
SPAK–WNK1 interaction = system: T1, SPAK–WNK1 interaction; assay: SPAK antibody pull-down / co-immunoprecipitation of WNK1 from HEK-293 cell lysates; type: binding, human; conditions: Fig S6
T1 construct: endogenous in cells; host or cells: HEK-293
Protocol: Supplemental Fig. 6 Evidence that SPAK associates with WNK1, and interaction is disrupted by ZT-1a and its analogs. Non-transfected HEK293 cell lysates were incubated with the RFQV peptide […]
ZT-1a for 30 min on ice and subjected to SPAK antibody immunoprecipitation. Immunoprecipitates were subjected to immunoblot probed with antibody to total WNK1 and antibody to total SPAK. Left panels: representative immunoblots. Right panels, summarized data quantitated by densitometry (n=3, means ± SEM; **,

SPAK pSer373 = assay: Immunoblot of SPAK/OSR1 p-Ser373/Ser325 in HEK-293 cells; type: cell-based, human; conditions: read-out: SPAK pSer373 (μM), 50% inhibition, HEK-293, n = 3
KCC3 pThr991 = assay: Immunoblot of KCC site 1 phosphorylation (KCC3 Thr991) in HEK-293 cells transfected with FLAG-KCC3; type: cell-based, human; conditions: read-out: KCC3 pThr991 (μM), 50% inhibition, HEK-293, n = 3
KCC3 pThr1048 = assay: Immunoblot of KCC site 2 phosphorylation (KCC3 Thr1048) in HEK-293 cells transfected with FLAG-KCC3; type: cell-based, human; conditions: read-out: KCC3 pThr1048 (μM), 50% inhibition, HEK-293, n = 3
NKCC1 pThr203/207/212 = assay: Immunoblot of NKCC1 p-Thr203/Thr207/Thr212 in HEK-293 cells; type: cell-based, human; conditions: read-out: NKCC1 pThr203 (μM), 50% inhibition, HEK-293, n = 3

Row | SMILES | WNK1 co-immunoprecipitated with SPAK (band quantification) (SPAK–WNK1 interaction; 10 uM) | WNK1 co-immunoprecipitated with SPAK (band quantification) (SPAK–WNK1 interaction; 30 uM) | WNK1 co-immunoprecipitated with SPAK (band quantification) (SPAK–WNK1 interaction; 100 uM) | WNK1 co-immunoprecipitated with SPAK (band quantification) (SPAK–WNK1 interaction; 1000 uM) | IC50 (SPAK pSer373; Iso (isotonic)) [µM] | IC50 (SPAK pSer373; hypo (hypotonic)) [µM] | IC50 (KCC3 pThr991; Iso (isotonic)) [µM] | IC50 (KCC3 pThr991; hypo (hypotonic)) [µM] | IC50 (KCC3 pThr1048; Iso (isotonic)) [µM] | IC50 (KCC3 pThr1048; hypo (hypotonic)) [µM] | IC50 (NKCC1 pThr203/207/212; Iso (isotonic)) [µM] | IC50 (NKCC1 pThr203/207/212; hypo (hypotonic)) [µM]
1 | Cc1cc(C(C#N)c2ccc(Cl)cc2)c(Cl)cc1NC(=O)c1cc(I)cc(I)c1O (stereo not shown) [Closanel] | 0.416 and 0.33 and 0.3682 and 0.389 | 0.353 and 0.208 and 0.256 and 0.231 | 0.179 and 0.139 and 0.1611 and 0.153 | 0.036 and 0.031 and 0.0232 and 0.027 |  |  |  |  |  |  |  | 
2 | Cc1cc(C(C#N)c2ccc(Cl)cc2)c(Cl)cc1NC(=O)c1ccccc1[N+](=O)[O-] (stereo not shown) [Compound 1e] |  |  |  |  | > 10 | > 10 | > 10 | > 10 | > 10 | > 10 | > 10 | > 10
3 | Cc1cc(C(C#N)c2ccc(Cl)cc2)c(Cl)cc1NC(=O)c1cccc(O)c1O (stereo not shown) [Compound 1i] |  |  |  |  | > 10 | > 10 | > 10 | > 10 | > 10 | > 10 | > 10 | > 10
4 | COc1ccc(Cl)cc1C(=O)Nc1cc(Cl)c(C(C#N)c2ccc(Cl)cc2)cc1C (stereo not shown) [Compound 1j] |  |  |  |  | > 10 | > 10 | > 10 | > 10 | > 10 | > 10 | > 10 | > 10
